Article PMC5057115, “Cathelicidins in the Tasmanian devil (Sarcophilus harrisii)” (Scientific Reports, 2016)
Where no end group is shown, it is not given here.

Experiments:
C. neoformans = format: cell-based, Cryptococcus neoformans; details: broth microdilution (CLSI), YNB, 64 to 0.125 μg/mL, 72 hours at 35 °C; human clinical isolate
Protocol: (§1) Tissue expression of devil cathelicidin prepropeptides was determined by real-time PCR on a range of secretory, immune, reproductive, gastrointestinal and respiratory tissues, as well as BLAST searches of the milk transcriptome. Opportunistic tissue samples for real-time PCR were collected from Taronga Zoo (Sydney) from devils which were subject to euthanasia due to old age and advanced disease. The mature peptides of all six devil cathelicidins were synthesised by ChinaPeptides Co. Ltd. and their antimicrobial activity against bacterial and fungal pathogens determined by broth microdilution susceptibility assay according to clinical laboratory standards institute guidelines. Antimicrobial activity was expressed as minimum inhibitory concentration (MIC). Cytotoxicity was assessed in the human cell line A549 and haemolytic activity determined against human blood. Statistical significance of peptide effect on cell survival in comparison to the untreated control was calculated using a one sample t-test. […]
(§2) Two antibiotics, ampicillin and tetracycline, were included as a positive control for bacteria, and the antifungal drug fluconazole for fungi. […] Colonies were resuspended in saline and the OD530 measured with a McFarland reader. […] Assays Antimicrobial activity was expressed as minimum inhibitory concentration (MIC), which was defined as the lowest concentration of cathelicidin preventing visible growth, relative to the negative control. […]
(§3) DMEM and positive control of dimethylsulfoxide (DMSO) (1%) were also included. Following incubation for a further 24 hours, cell viability was determined using alamar blue (Invitrogen) which was added to each well. The plates were incubated for 24 hours, then the absorption measured at 570nm and 620nm using the Victor 3 multilabel plate reader (PerkinElmer). […] To x i city of cathelicidins was calculated according to Invitrogen recommendations and expressed as percentage cell survival compared to the untreated growth control. […]
(§4) Haemolytic activity was assessed using 10mL of human blood collected into potassium -ED T A […]

S. aureus ATCC 29213 = test: microbe, parasite or virus in culture; format: cell-based, Staphylococcus aureus; details: ATCC 29213, 24 h
Protocol: as §1, with “t-test. Pouch microbiome analysis was performed on swabs from the pouch of lactating and non-lactating devils to detect changes in microbe populations. Pouch swab collection was carried out in accordance with the Save the Tasmanian Devil Program and was approved by the Animal Ethics Committee of the University of Sydney (permit number 681).” for “t-test.”
(§5) base (YNB) for fungi, from a concentration of 64μg/mL to 0.125μg/mL in a final volume of 100 μL .
(§6) Two antibiotics, ampicillin and tetracycline, were included as a positive control for bacteria, and the antifungal drug fluconazole for fungi. A well containing cells and media only was used as a “no drug” control to ensure that cultures grew normally. Bacteria were subcultured on Mueller Hinton agar (MHA) or Sheep blood agar (BA) for 24 hours at 35 °C for Staphylococcus spp., Pseudomonas spp., Enterococcus spp. and E.coli, with 5% CO2 for Streptococcus spp., K.pneumoniae, P.multocida, L.monocytogenes and N.asteroides. Similarly, fungi were subcultured on Sabouraud agar (SAB) at 35 °C for 24 hours prior to the test. Colonies were resuspended in saline and the OD530 measured with a McFarland reader. If necessary the suspension was diluted to 0.45-0.55 McFarland units with saline. […] Assays Antimicrobial activity was expressed as minimum inhibitory concentration (MIC), which was defined as the lowest concentration of cathelicidin preventing visible growth, relative to the negative control. […]
(§7) 570nm and 620nm using the Victor 3 multilabel plate reader (PerkinElmer). […] To x i city of cathelicidins was calculated according to Invitrogen recommendations and expressed as percentage cell survival compared to the untreated growth control. […]
(§8) Haemolytic activity was assessed using 10mL of human blood collected into potassium -ED T A vacutainers (BD). […]

E. coli ATCC 25922 = test: microbe, parasite or virus in culture; format: cell-based, Escherichia coli; details: ATCC 25922, 24 h
Protocol: as §1, with “t-test. Pouch microbiome analysis was performed on swabs from the pouch of lactating and non-lactating devils to detect changes in microbe populations. Pouch swab collection was carried out in accordance with the Save the Tasmanian Devil Program and was approved by the Animal Ethics Committee of the University of Sydney (permit number 681).” for “t-test.”
as §5, §6, §7, §8

[1] = tested on: C. parapsilosis ATCC 22019; test: microbe, parasite or virus in culture; format: cell-based; details: broth microdilution (CLSI), YNB, 64 to 0.125 μg/mL, 48 hours at 35 °C; ATCC strain
Protocol: as §1, with “t-test. Pouch microbiome analysis was performed on swabs from the pouch of lactating and non-lactating devils to detect changes in microbe populations. Pouch swab collection was carried out in accordance with the Save the Tasmanian Devil Program and was approved by the Animal Ethics Committee of the University of Sydney (permit number 681).” for “t-test.”
as §5
(§9) Two antibiotics, ampicillin and tetracycline, were included as a positive control for bacteria, and the antifungal drug fluconazole for fungi. A well containing cells and media only was used as a “no drug” control to ensure that cultures grew normally. Bacteria were subcultured on Mueller Hinton agar (MHA) or Sheep blood agar (BA) for 24 hours at 35 °C for Staphylococcus spp., Pseudomonas spp., Enterococcus spp. and E.coli, with 5% CO2 for Streptococcus spp., K.pneumoniae, P.multocida, L.monocytogenes and N.asteroides. Similarly, fungi were subcultured on Sabouraud agar (SAB) at 35 °C for 24 hours prior to the test. Colonies were resuspended in saline and the OD530 measured with a McFarland reader. If necessary the suspension was diluted to 0.45-0.55 McFarland units with saline. Following a 1:150 dilution for bacteria and twostep dilution for fungi (1:50, 1:20), 100 μL of microorganisms (1x106 – 5 x10^5 cells/mL) were pipetted into wells 2-12, the first well acting as a negative control. Colony counts were performed using a 1:1000 dilution for bacteria and 1:10 for fungi spread onto MHA/BA or SAB plates respectively. The 96 well microdilution and agar plates were incubated for 24 hours at 35 °C (Escherichia coli, Staphylococcus spp., Enterococcus spp. and Pseudomonas spp.), with 5% CO2 (Streptococcus spp. Pasteurella multocida, Klebsiella pneumoniae, Listeria monocytogenes a nd Nocardia asteroids) for bacteria, and 35 °C for 48 hours (Candida spp .) or 72 hours (Cryptococcus spp.) for fungi. Assays Antimicrobial activity was expressed as minimum inhibitory concentration (MIC), which was defined as the lowest concentration of cathelicidin preventing visible growth, relative to the negative control. […]
(§10) DMEM and positive control of dimethylsulfoxide (DMSO) (1%) were also included. […]
(§11) 570nm and 620nm using the Victor 3 multilabel plate reader (PerkinElmer). The assay was performed on two separate occasions. To x i city of cathelicidins was calculated according to Invitrogen recommendations and expressed as percentage cell survival compared to the untreated growth control. A significant difference between cathelicidin treated and control cell survival was tested using a o ne sample t-test (p<0.05).
(§12) Haemolytic activity was assessed using 10mL of human blood collected into potassium -ED T A vacutainers (BD). The blood was washed three times with 30mL of calcium and magnesium -free Dulbecco’s phosphate buffered saline (DPBS) and cells were collected by centrifugation at 2000 x g […]
(§13) for 10 minutes. […]

S. pneumoniae ATCC 49619 = test: microbe, parasite or virus in culture; format: cell-based; details: ATCC 49619, 24 h
Protocol: as §1, with “t-test. Pouch microbiome analysis was performed on swabs from the pouch of lactating and non-lactating devils to detect changes in microbe populations. Pouch swab collection was carried out in accordance with the Save the Tasmanian Devil Program and was approved by the Animal Ethics Committee of the University of Sydney (permit number 681).” for “t-test.”
as §5, §9, §10, §11, §12, §13

P. multocida* = format: cell-based, Pasteurella multocida; details: broth microdilution (CLSI), 64 to 0.125 μg/mL, 24 h at 35 °C with 5% CO2; animal isolate
Protocol: as §1, §2, §3, §4

S. aureus = format: cell-based, Staphylococcus aureus; details: broth microdilution (CLSI), 64 to 0.125 μg/mL, 24 h at 35 °C; human clinical isolate
Protocol: as §1, with “t-test. Pouch microbiome analysis was performed on swabs from the pouch of lactating and non-lactating devils to detect changes in microbe populations. Pouch swab collection was carried out in accordance with the Save the Tasmanian Devil Program and was approved by the Animal Ethics Committee of the University of Sydney (permit number 681).” for “t-test.”
as §5
Two antibiotics, ampicillin and tetracycline, were included as a positive control for bacteria, and the antifungal drug fluconazole for fungi. A well containing cells and media only was used as a “no drug” control to ensure that cultures grew normally. […] Colonies were resuspended in saline and the OD530 measured with a McFarland reader. […] Assays Antimicrobial activity was expressed as minimum inhibitory concentration (MIC), which was defined as the lowest concentration of cathelicidin preventing visible growth, relative to the negative control. […]
as §3, §4

[2] = tested on: S. dysgalactiae subs. equisimilis; format: cell-based; details: broth microdilution (CLSI), 64 to 0.125 μg/mL, 24 h at 35 °C with 5% CO2; human clinical isolate
Protocol: as §1, with “t-test. Pouch microbiome analysis was performed on swabs from the pouch of lactating and non-lactating devils to detect changes in microbe populations. Pouch swab collection was carried out in accordance with the Save the Tasmanian Devil Program and was approved by the Animal Ethics Committee of the University of Sydney (permit number 681).” for “t-test.”
as §5, §9
(§14) DMEM and positive control of dimethylsulfoxide (DMSO) (1%) were also included. Following incubation for a further 24 hours, cell viability was determined using alamar blue (Invitrogen) which was added to each well. The plates were incubated for 24 hours, then the absorption measured at 570nm and 620nm using the Victor 3 multilabel plate reader (PerkinElmer). The assay was performed on two separate occasions. To x i city of cathelicidins was calculated according to Invitrogen recommendations and expressed as percentage cell survival compared to the untreated growth control. A significant difference between cathelicidin treated and control cell survival was tested using a o ne sample t-test (p<0.05).
as §4
(§15) vacutainers (BD). […]

S. agalactiae ATCC 12386 = format: cell-based; details: broth microdilution (CLSI), 64 to 0.125 μg/mL, 24 h at 35 °C with 5% CO2; ATCC strain
Protocol: as §1, with “t-test. Pouch microbiome analysis was performed on swabs from the pouch of lactating and non-lactating devils to detect changes in microbe populations. Pouch swab collection was carried out in accordance with the Save the Tasmanian Devil Program and was approved by the Animal Ethics Committee of the University of Sydney (permit number 681).” for “t-test.”
as §5, §9, §14, §4, §15

N. asteroides* = format: cell-based; details: broth microdilution (CLSI), 64 to 0.125 μg/mL, 24 h at 35 °C with 5% CO2; animal isolate
Protocol: as §1, with “t-test. Pouch microbiome analysis was performed on swabs from the pouch of lactating and non-lactating devils to detect changes in microbe populations. Pouch swab collection was carried out in accordance with the Save the Tasmanian Devil Program and was approved by the Animal Ethics Committee of the University of Sydney (permit number 681).” for “t-test.”
as §5, §9, §14, §4, §15

S. equi* = format: cell-based; details: broth microdilution (CLSI), 64 to 0.125 μg/mL, 24 h at 35 °C with 5% CO2; animal isolate
Protocol: as §1, with “t-test. Pouch microbiome analysis was performed on swabs from the pouch of lactating and non-lactating devils to detect changes in microbe populations. Pouch swab collection was carried out in accordance with the Save the Tasmanian Devil Program and was approved by the Animal Ethics Committee of the University of Sydney (permit number 681).” for “t-test.”
as §5, §9, §14, §4, §15

S. mutans = format: cell-based; details: broth microdilution (CLSI), 64 to 0.125 μg/mL, 24 h at 35 °C with 5% CO2; human clinical isolate
Protocol: as §1, with “t-test. Pouch microbiome analysis was performed on swabs from the pouch of lactating and non-lactating devils to detect changes in microbe populations. Pouch swab collection was carried out in accordance with the Save the Tasmanian Devil Program and was approved by the Animal Ethics Committee of the University of Sydney (permit number 681).” for “t-test.”
as §5, §9, §14, §4, §15

S. lutetiensis = format: cell-based; details: broth microdilution (CLSI), 64 to 0.125 μg/mL, 24 h at 35 °C with 5% CO2; human clinical isolate
Protocol: as §1, with “t-test. Pouch microbiome analysis was performed on swabs from the pouch of lactating and non-lactating devils to detect changes in microbe populations. Pouch swab collection was carried out in accordance with the Save the Tasmanian Devil Program and was approved by the Animal Ethics Committee of the University of Sydney (permit number 681).” for “t-test.”
as §5, §9, §14, §4, §15

Sequence	MIC (C. neoformans) [µg/mL]	MIC (S. aureus ATCC 29213) [µg/mL]	MIC (E. coli ATCC 25922) [µg/mL]	MIC [1] [µg/mL]	MIC (S. pneumoniae ATCC 49619) [µg/mL]	MIC (P. multocida*) [µg/mL]	MIC (S. aureus) [µg/mL]	MIC [2] [µg/mL]	MIC (S. agalactiae ATCC 12386) [µg/mL]	MIC (N. asteroides*) [µg/mL]	MIC (S. equi*) [µg/mL]	MIC (S. mutans) [µg/mL]	MIC (S. lutetiensis) [µg/mL]
KRIGLIRLIGKILRGLRRLG [Saha-CATH5]	32	64	32	>64	64	>64	64	>64	64	>64	64	>64	>64
KRIRFFERIRDRLRDLGNRIKNRIRDFFS [Saha-CATH6]	64	>64	>64	>64	64	>64	>64	>64	64	>64	>64	>64	>64
KRMGIFHLFWAGLRKLGNLIKNKIQQGIENFLG [Saha-CATH3]	16	>64	>64	>64	>64	>64	>64	>64	>64	>64	>64	>64	>64
